Laboratory results published in ChEMBL document CHEMBL1153122, “Pyrazolone based TGFbetaR1 kinase inhibitors” (Bioorg Med Chem Lett, 2010).

Experiments:
[1] = Half life in rat at 5 mg/kg, po and iv; type: ADME, organism-based; set-up: dose 5 mg/kg, route oral; conditions: in vivo
[2] = Oral bioavailability in rat at 5 mg/kg; type: ADME, organism-based; conditions: in vivo
Mus musculus = species on record: Mus musculus; assay: animal or person; conditions: BALB/c, po, 1 h, read-out: INH

half-life [1]: 180 min
bioavailability [2]: 34%
SMILES: Cn1c(-c2ccc3nccnc3c2)c(-c2cccc(Br)c2)c(=O)n1C
inhibition in vivo at 3 mg/kg (Mus musculus): 43%
